Where “and” joins values, the source holds several entries; their conditions need not be identical. Equal entries are not always repeated.
How the values were obtained:
human MCF-7 cells = experiment: Visually scored toxicity of NAC-MTN / NAC-DOX at fixed loading (Example 3); format: cell-based; details: 5.1% drug loading, 16 hour incubation
Experimental: Toxicity of NAC-MTN or NAC-DOX, at 50, 16.9, 5.6, and 1.9 ug/ml final drug concentration and 5.1 % drug loading in human MCF-7 cells. Sample A: 15 mg of HSDNA (EX031804A) was combined with 0.76 mg MTN(mw 517.4) or (sample B) 0.76 mg DOX (mw 579.99) to give 152 ug/ml final drug and 5.1% loading in 5 ml final vol. Samples C, D were MTN, or DOX only controls at equivalent final [drug] without HSDNA. Sample E was HSDNA, no drug and sample F was H2O only. MCF-7 cells were trypsinized and plated out previously. Triplicate samples were diluted 0.1 ml in 0.2 ml 1× media to give 3× fold serial dilution in 0.2 ml final. After 16 hour incubation the cells were visually inspected for signs of toxicity. Toxicity was scored as the following: 50%=one half all cells rounded, un-adhered or crenated.

[1] = after 5 days; cited from earlier work
MCF7 cells = experiment: Drug loading vs toxicity at fixed [drug], MTT viability assay (Example 4); format: cell-based, human; details: Drug only, without carrier; 0.103 mM DOX; 72 hours
Experimental: FIG. 1. […] NAC-MTN or NAC-DOX were prepared at different weight:weight % of drug:nucleic acid and incubated in cells. For each sample and corresponding % loading, the total drug was held constant at 0.058 mM MTN or 0.1 mM DOX. After incubation in cells, cell viability was assayed via mitochondrial dehydrogenase activity against 3-[4,5-dimethylthiazol-2-yl]-2,5-diphenyl tetrazolium bromide (MTT) and reported as % toxicity relative to untreated cells.
Mitoxantrone (MTN, Sigma Aldrich) and Doxorubicin HCl (DOX) were diluted in HBSS to 1 mg/ml final. DNA, from degraded herring sperm DNA <40 bp (HSDNA, Sigma Aldrich), was prepared in water at 10 mg/ml. The drug was diluted in water or HBSS first, followed by addition of the DNA, in order to prevent precipitation. Precipitation of drug was especially a concern at 40% loading of MTN, which is the loading limit for HSDNA (degraded) and so the DNA is added slowly to the diluted MTN (the reverse addition leads to precipitation). All NAC-MTN formulation stocks were prepared at 0.15 mg/ml final MTN, and different concentration of DNA in order to give 15, 25, and 35.7% final drug loading w/w % of MTN/DNA in 0.5 ml final volume. All NAC-DOX formulations were prepared at 0.3 mg/ml final DOX, and either 5, 10, or 15% loaded drug weight/weight % of DOX/DNA in 0.5 ml final volume. […]

[2] = Stability of NAC-DOX complex in hank's buffered saline (HBSS) at pH 7; format: physicochemical
Experimental: The NAC-DOX complex was tested for stability in hank's buffered saline (HBSS) at pH 7.

[3] = Dipyridamole precipitation assay, supernatant absorbance A410 (Example 6); format: physicochemical
Experimental: Similar results were obtained for dipyridamole (DPA). Dipyridamole is a coronary vasodilator and functions primarily to reduce platelet adhesion and aggregation. […] Dipyridamole for intravenous injection is given as a sodium chloride or dextrose injection with 5 mg of DPA, 50 mg PEG600, 2 mg tartaric acid, and water at pH 2.7. Dipyridamole is readily soluble in acidic solution, however at higher pH it can precipitate. […] Furthermore, the nucleic acid targeting of dipyridamole can provide unexpected therapeutic benefits by enhancing its accumulation in specific areas of the body.
Dipyridamole (DPA, m.w. 504.6) was prepared as 10.27 mM […] solution in water acidified with HCl. DNA was from HSDNA 428A) 10 mg/ml in H2O prev. heated to 80C.
Prepared samples 1-3 by combining 25 ul of DPA and 0.2 ml DNA to give a turbid solution. Added 7 ul of 1M HCl to clarify, followed by 0.1 ml of 1M potassium phosphate buffer (KP) pH7. Repeated for samples 4-6 and replace DNA with water. […] Read absorbance of 0.3 ml supernatant at A410. Higher values corresponded to more drug solubilized.

[4] = Paclitaxel solubilization by NAC, turbidity OD410 (Example 8); format: physicochemical; details: formulation with a nucleic acid
Experimental: Solubility enhancement of paclitaxel by NAC. Aqueous paclitaxel solutions were prepared with or without DNA, sonicated, stored at room temperature for several hours, and then centrifuged. The pellets were resuspended in 50% ethanol and the precipitated paclitaxel was quantified using a standard absorbance curve at 230 nm. The total percentage of solubilized paclitaxel was calculated using %=100× (1-assy mM)/expected mM.
Materials: Paclitaxel 10.0 mg/ml (0.0118M, m.w. 853.92) in 80% ETOH. HSDNA (herring sperm degraded DNA 428A, Sigma-Aldrich) 10 mg/ml pH7 HSGDNA (genomic, Promega mw range 100 bp-3000 bp) 10 mg/ml. […] 1M potassium phosphate buffer pH5.
Aqueous paclitaxel solutions were prepared by combining 10 ul (0.01 ml) of paclitaxel stock (11.8 mM) with 2.0 ml H2O containing water only, HSGDNA, HSDNA, RNA, or HSDNA/pPEGPEI2K as indicated in the table. Samples were sonicated 3 min. with Branson Sonifier 450 @40% duty, at #3 output level. In 10 mM potassium phosphate pH5.
Let solutions stand 30 min, and read turbidity of 0.3 ml at A410 on the Synergy HT1. Samples were 10 min @2500 rpm on Beckman Allegra21R. The pellet was resuspended in 1.5 ml of 50% ETOH and OD230 nm was taken of a 0.3 ml sample in a Falcon UV clear plate on Synergy HT1. Prepared paclitaxel standard curve, 10 ul of 9.81 mM in 1 ml 50% ETOH was diluted 2×, serially in 5 vials at 0.5 ml final vol. […]

[5] = physiological conditions; cited from earlier work

Compound | Toxicity (visual score) (human MCF-7 cells; 5.6 ug/ml final drug) [%] | Toxicity (visual score) (human MCF-7 cells; 17 ug/ml final drug) | Toxicity (visual score) (human MCF-7 cells; 50 ug/ml final drug) [%] | Toxicity (visual score) (human MCF-7 cells; 1 .9 ug/ml final drug) [%] | also measured
O=C1c2c(O)ccc(O)c2C(=O)c2c(NCCNCCO)ccc(NCCNCCO)c21 [C, mitoxantrone] | 90 | 100% | 100 | 20 | –
COc1cccc2c1C(=O)c1c(O)c3c(c(O)c1C2=O)C[C@@](O)(C(=O)CO)C[C@@H]3O[C@H]1C[C@H](N)[C@H](O)[C@H](C)O1 [DOX, doxorubicin] | – | 80-90% | – | – | administered drug recovered in urine [1]: 4-5%; % Tox (MCF7 cells): 67%; stability in hank's buffered saline (HBSS) at pH 7 [2]: became unstable at pH 7
OCCN(CCO)c1nc(N2CCCCC2)c2nc(N(CCO)CCO)nc(N3CCCCC3)c2n1 [DPA, dipyridamole] | – | – | – | – | stability against precipitation ([3]; formulated with the nucleic acid carrier, aqueous solutions at pH 7): stabilized dipyridamole against precipitation; A410 of supernatant ([3]; potassium phosphate buffer pH7, 16 hours, higher = more drug solubilized, replicate samples): 0.388 and 0.396 and 0.401
COc1cccc2c1C(=O)c1c(O)c3c(c(O)c1C2=O)C[C@@](O)(C(=O)CO)C[C@@H]3O[C@H]1C[C@H](N)[C@H](O)[C@H](C)O1 [Sample D, doxorubicin] | 20 | 80% | 100 | 10 | –
CC(=O)O[C@H]1C(=O)[C@@]2(C)[C@H]([C@H](OC(=O)c3ccccc3)[C@]3(O)C[C@H](OC(=O)[C@H](O)[C@@H](NC(=O)c4ccccc4)c4ccccc4)C(C)=C1C3(C)C)[C@]1(OC(C)=O)CO[C@@H]1C[C@@H]2O [paclitaxel] | – | – | – | – | enhancement of solubility of paclitaxel compared with water alone [4]: ≤ 200%
Mylotarg: mAB-calcheamicin conjugate with hydrazone linker | – | – | – | – | drug existing in free form [5]: approximately 50%

Source: US20070225213A1, “Nucleic acid carriers for delivery of therapeutic agents” (priority 2006, published 2007)
